Consider 26 compounds from patent EP4559911A1, “NOVEL HETEROCYCLIC COMPOUND AND PHARMACEUTICAL COMPOSITION FOR INHIBITING AUTOTAXIN COMPRISING THE SAME” (Nextgen Bioscience Co., Ltd., priority 2022, dated 2024).

For orientation: inhibition means the relative decrease from the control value, in per cent. Lower therefore signals a weak effect.

The target of this assay is human Autotaxin protein (Homo sapiens, UniProt Q13822). Description: Evaluation of the inhibitory activity against human Autotaxin protein (18:1 LysoPC substrate, choline assay kit, absorbance at 570 nm). In kind it is biochemical. To be noted: compound at 500nM; 2 hours at 37 °C; % inhibition = (1 - absorbance test group / absorbance control group) X 100. How it is done:
Solutions of each compound synthesized (80 uM, 100% dimethyl sulfoxide) were sequentially diluted 5-fold with dimethyl sulfoxide to prepare 6 concentrations. Each concentration of the compound was diluted 2-fold with 1x test buffer (50 mM Tris-Cl (pH 8.0), 5 mM KCl, 1 mM CaCl2, 1 mM MgCl2, 140 mM NaCl, deionized water, 1 mg/mL BSA), and 1 uL (1.25% dimethyl sulfoxide) of this diluted mixture was dispensed into each well of a 96-well clear round-bottom plate. 9 uL of 1x test buffer was added, and 20 uL of 240 nM human autotaxin protein (buffer: 50 mM Tris-HCl, pH 8.0, with 150 mM sodium chloride and 20% glycerol) was added. 10 uL of sonicated 360 uM 18:1 LysoPC (diluted with 1x assay buffer) was added. The reaction was performed for 2 hours in a shaking incubator at 37 °C, and a secondary reaction mixture (choline assay kit, KA1662) (65 uL of 1x assay buffer: 1 uL of choline oxidase: 1 uL of dye probe) was prepared. 60 uL of the secondary reaction mixture was added to the plate where the reaction was performed, and incubated for 30 minutes in a shaker. The absorbance value was measured at a wavelength of 570 nm using a SpectraMax iD3 microplate reader. The percentage inhibition activity value (% inhibition) was calculated by the formula: (1 - absorbance value test group / absorbance value control group) X 100.
Regarding `CC1(c2c[nH]nn2)CCN(c2nnc(-c3cnc(NCc4cc(F)cc(F)c4)nc3)o2)C1` (centres unmarked) [Example 33, N-(3,5-difluorobenzyl)-5-(5-(3-methyl-3-(1H-1,2,3-triazol-4-yl)pyrrolidin-1-yl)-1,3,4-oxadiazol-2-yl)pyrimidin-2-amine], the inhibition at 0.5 µM is 29.1%.

As for `Clc1cc(Cl)cc(CCNc2ncc(-c3nnc(N4CCC(c5c[nH]nn5)C4)o3)cn2)c1` (centres unmarked) [Example 11, 5-(5-(3-(1H-1,2,3-triazol-4-yl)pyrrolidin-1-yl)-1,3,4-oxadiazol-2-yl)-N-(3,5-dichlorophenethyl)pyrimidin-2-amine], the inhibition at 0.5 µM stood at 41.6%. `O=C(/C=C/c1cnc(NC2Cc3ccccc3C2)nc1)N1CCC(c2c[nH]nn2)C1` (centres unmarked) [Example 20, (E)-1-(3-(1H-1,2,3-triazol-4-yl)pyrrolidin-1-yl)-3-(2-((2,3-dihydro-1H-inden-2-yl)amino)pyrimidin-5-yl)prop-2-en-1-one]: at 0.5 µM the inhibition was 92.4%.

`Cc1ncn(C2CCN(c3nnc(-c4cnc(NC5Cc6cc(F)c(F)cc6C5)nc4)o3)C2)n1` (centres unmarked) [Example 29, N-(5,6-difluoro-2,3-dihydro-1H-inden-2-yl)-5-(5-(3-(3-methyl-1H-1,2,4-triazol-1-yl)pyrrolidin-1-yl)-1,3,4-oxadiazol-2-yl)pyrimidin-2-amine]: testing at 0.5 µM gave an inhibition of 9.2%. The value for `CC(C)(C)C(=O)OCn1cc(C2CCN(c3nnc(-c4cnc(NC5Cc6cc(F)c(F)cc6C5)nc4)o3)C2)nn1` (centres unmarked) [Example 2, (4-(1-(5-(2-((5,6-difluoro-2,3-dihydro-1H-inden-2-yl)amino)pyrimidin-5-yl)-1,3,4-oxadiazol-2-yl)pyrrolidin-3-yl)-1H-1,2,3-triazol-1-yl)methyl pivalate] was 3%; that for `Fc1cc2c(cc1F)CC(Nc1ncc(-c3nnc(N4CC(n5cncn5)C4)o3)cn1)C2` [Example 79, 5-(5-(3-(1H-1,2,4-triazol-1-yl)azetidin-1-yl)-1,3,4-oxadiazol-2-yl)-N-(5,6-difluoro-2,3-dihydro-1H-inden-2-yl)pyrimidin-2-amine] was 24.7%; that for `CC1(c2c[nH]nn2)CN(C(=O)/C=C/c2cnc(NC3Cc4ccccc4C3)nc2)C1` [Example 82, (E)-3-(2-((2,3-dihydro-1H-inden-2-yl)amino)pyrimidin-5-yl)-1-(3-methyl-3-(1H-1,2,3-triazol-4-yl)azetidin-1-yl)prop-2-en-1-one] was 98%.

Turning to `OC1CCN(c2nnc(-c3cnc(NC4Cc5cc(F)c(F)cc5C4)nc3)o2)C1` (centres unmarked) [Example 26, 1-(5-(2-((5,6-difluoro-2,3-dihydro-1H-inden-2-yl)amino)pyrimidin-5-yl)-1,3,4-oxadiazol-2-yl)pyrrolidin-3-ol], the inhibition at 0.5 µM is 1%. The value for `CC(C)(C)C(=O)OCn1cc(C2CN(c3nnc(-c4cnc(NC5Cc6ccc(Br)cc6C5)nc4)o3)C2)nn1` (centres unmarked) [Example 62, (4-(1-(5-(2-((5-bromo-2,3-dihydro-1H-inden-2-yl)amino)pyrimidin-5-yl)-1,3,4-oxadiazol-2-yl)azetidin-3-yl)-1H-1,2,3-triazol-1-yl)methyl pivalate] was 1%. The value for `c1cc2c(cc1CNc1ncc(-c3nnc(N4CC(c5c[nH]nn5)C4)o3)cn1)OCO2` [Example 87, 5-(5-(3-(1H-1,2,3-triazol-4-yl)azetidin-1-yl)-1,3,4-oxadiazol-2-yl)-N-(benzo[d][1,3]dioxol-5-ylmethyl)pyrimidin-2-amine] was 18%; that for `CC(C)(C)C(=O)OCn1cc(C2CN(c3nnc(-c4cnc(NCc5ccc6c(c5)OCO6)nc4)o3)C2)nn1` [Example 86, (4-(1-(5-(2-((benzo[d][1,3]dioxol-5-ylmethyl)amino)pyrimidin-5-yl)-1,3,4-oxadiazol-2-yl)azetidin-3-yl)-1H-1,2,3-triazol-1-yl)methyl pivalate] was 2.8%. The value for `COC(=O)CC1CCN(c2nnc(-c3cnc(NC4Cc5cc(F)c(F)cc5C4)nc3)o2)C1` (centres unmarked) [Example 24, methyl 2-(1-(5-(2-((5,6-difluoro-2,3-dihydro-1H-inden-2-yl)amino)pyrimidin-5-yl)-1,3,4-oxadiazol-2-yl)pyrrolidin-3-yl)acetate] was 1%; that for `c1cnc2c(n1)CC(Nc1ncc(-c3nnc(N4CC(c5c[nH]nn5)C4)o3)cn1)C2` [Example 74, N-(5-(5-(3-(1H-1,2,3-triazol-4-yl)azetidin-1-yl)-1,3,4-oxadiazol-2-yl)pyrimidin-2-yl)-6,7-dihydro-5H-cyclopenta[b]pyrazin-6-amine] was 7.1%.

`COc1ccc2c(c1)CC(Nc1ncc(-c3nnc(N4CC(c5c[nH]nn5)C4)o3)cn1)C2` (centres unmarked) [Example 71, 5-(5-(3-(1H-1,2,3-triazol-4-yl)azetidin-1-yl)-1,3,4-oxadiazol-2-yl)-N-(5-methoxy-2,3-dihydro-1H-inden-2-yl)pyrimidin-2-amine] gave an inhibition at 0.5 µM of 95.5%. The value for `Cc1nc(NC2Cc3cc(F)c(F)cc3C2)ncc1-c1nnc(N2CC(c3c[nH]nn3)C2)o1` [Example 67, 5-(5-(3-(1H-1,2,3-triazol-4-yl)azetidin-1-yl)-1,3,4-oxadiazol-2-yl)-N-(5,6-difluoro-2,3-dihydro-1H-inden-2-yl)-4-methylpyrimidin-2-amine] was 74.7%; that for `CC1(c2c[nH]nn2)CCN(C(=O)/C=C/c2cnc(NC3Cc4ccccc4C3)nc2)C1` (centres unmarked) [Example 34, (E)-3-(2-((2,3-dihydro-1H-inden-2-yl)amino)pyrimidin-5-yl)-1-(3-methyl-3-(1H-1,2,3-triazol-4-yl)pyrrolidin-1-yl)prop-2-en-1-one] was 88.4%; that for `O=C(/C=C/c1cnc(NC2Cc3cc(F)c(F)cc3C2)nc1)N1CCC(c2c[nH]nn2)C1` (centres unmarked) [Example 9, (E)-1-(3-(1H-1,2,3-triazol-4-yl)pyrrolidin-1-yl)-3-(2-((5,6-difluoro-2,3-dihydro-1H-inden-2-yl)amino)pyrimidin-5-yl)prop-2-en-1-one] was 94.2%. The figure for `O=C(/C=C/c1cnc(NC2Cc3cc(F)c(F)cc3C2)nc1)N1CC(c2c[nH]nn2)C1` [Example 40, (E)-1-(3-(1H-1,2,3-triazol-4-yl)azetidin-1-yl)-3-(2-((5,6-difluoro-2,3-dihydro-1H-inden-2-yl)amino)pyrimidin-5-yl)prop-2-en-1-one] is 98.6%; for `COC(=O)C1CN(c2nnc(-c3cnc(NC4Cc5cc(F)c(F)cc5C4)nc3)o2)C1` [Example 47, methyl 1-(5-(2-((5,6-difluoro-2,3-dihydro-1H-inden-2-yl)amino)pyrimidin-5-yl)-1,3,4-oxadiazol-2-yl)azetidine-3-carboxylate] it is 7.5%.

In turn, `O=C(O)C1CCN(c2nnc(-c3cnc(NC4Cc5cc(F)c(F)cc5C4)nc3)o2)C1` (centres unmarked) [Example 22, 1-(5-(2-((5,6-difluoro-2,3-dihydro-1H-inden-2-yl)amino)pyrimidin-5-yl)-1,3,4-oxadiazol-2-yl)pyrrolidine-3-carboxylic acid] registered an inhibition at 0.5 µM of 3.6%. In turn, `CC1(c2c[nH]nn2)CCN(c2nnc(-c3cnc(NC4Cc5ccccc5C4)nc3)o2)C1` (centres unmarked) [Example 31, N-(2,3-dihydro-1H-inden-2-yl)-5-(5-(3-methyl-3-(1H-1,2,3-triazol-4-yl)pyrrolidin-1-yl)-1,3,4-oxadiazol-2-yl)pyrimidin-2-amine] displayed an inhibition at 0.5 µM of 96.8%. The value for `O=C(O)CC1CN(c2nnc(-c3cnc(NC4Cc5cc(F)c(F)cc5C4)nc3)o2)C1` [Example 53, 2-(1-(5-(2-((5,6-difluoro-2,3-dihydro-1H-inden-2-yl)amino)pyrimidin-5-yl)-1,3,4-oxadiazol-2-yl)azetidin-3-yl)acetic acid] was 24.7%; that for `Clc1ccc2c(c1)CC(Nc1ncc(-c3nnc(N4CCC(c5c[nH]nn5)C4)o3)cn1)C2` (centres unmarked) [Example 37, 5-(5-(3-(1H-1,2,3-triazol-4-yl)pyrrolidin-1-yl)-1,3,4-oxadiazol-2-yl)-N-(5-chloro-2,3-dihydro-1H-inden-2-yl)pyrimidin-2-amine] was 97.9%. The figure for `Fc1cc2c(cc1F)CC(Nc1ncc(-c3cc(N4CC(c5c[nH]nn5)C4)no3)cn1)C2` [Example 45, 5-(3-(3-(1H-1,2,3-triazol-4-yl)azetidin-1-yl)isoxazol-5-yl)-N-(5,6-difluoro-2,3-dihydro-1H-inden-2-yl)pyrimidin-2-amine] is 43%; for `Fc1cc2c(cc1F)CC(Nc1ncc(-c3nnc(N4CC(c5nnc(C(F)F)o5)C4)o3)cn1)C2` [Example 61, N-(5,6-difluoro-2,3-dihydro-1H-inden-2-yl)-5-(5-(3-(5-(difluoromethyl)-1,3,4-oxadiazol-2-yl)azetidin-1-yl)-1,3,4-oxadiazol-2-yl)pyrimidin-2-amine] it is 1%; for `Fc1cc2c(cc1F)CC(Nc1ncc(-c3nnc(N4CCC(c5c[nH]cn5)C4)o3)cn1)C2` (centres unmarked) [Example 38, 5-(5-(3-(1H-imidazol-4-yl)pyrrolidin-1-yl)-1,3,4-oxadiazol-2-yl)-N-(5,6-difluoro-2,3-dihydro-1H-inden-2-yl)pyrimidin-2-amine] it is 55%.
